Experimental data published in the kinase profiling compilation of Christmann-Franck et al. (2016).

Tests used:
Assay in all cases: KINOMEscan competition binding
Conditions in all cases: compound 10.0 µM
[1] = biological target: BMPR1A (human) (UniProt P36894)
[2] = biological target: LIMK2 (human) (UniProt P53671)
[3] = biological target: MAP4K2 (human) (UniProt Q12851)
[4] = biological target: IRAK1 (human) (UniProt P51617)
[5] = biological target: STK35 (human) (UniProt Q8TDR2)
[6] = biological target: MAST1 (human) (UniProt Q9Y2H9)
[7] = biological target: MAP3K2 (human) (UniProt Q9Y2U5)
[8] = biological target: CAMKK1 (human) (UniProt Q8N5S9)
[9] = biological target: NIM1 (human) (UniProt Q8IY84)
[10] = biological target: DYRK1A (human) (UniProt Q13627)
[11] = biological target: PRKG1 (human) (UniProt Q13976)
[12] = biological target: TSSK1B (human) (UniProt Q9BXA7)
[13] = biological target: MYLK3 (human) (UniProt Q32MK0)
[14] = biological target: ULK3 (human) (UniProt Q6PHR2)
[15] = biological target: LATS1 (human) (UniProt O95835)
[16] = biological target: MAP3K1 (human) (UniProt Q13233)
[17] = biological target: STK38 (human) (UniProt Q15208)
Sequence of STK38 (human) (Q15208 whole entry, looked up): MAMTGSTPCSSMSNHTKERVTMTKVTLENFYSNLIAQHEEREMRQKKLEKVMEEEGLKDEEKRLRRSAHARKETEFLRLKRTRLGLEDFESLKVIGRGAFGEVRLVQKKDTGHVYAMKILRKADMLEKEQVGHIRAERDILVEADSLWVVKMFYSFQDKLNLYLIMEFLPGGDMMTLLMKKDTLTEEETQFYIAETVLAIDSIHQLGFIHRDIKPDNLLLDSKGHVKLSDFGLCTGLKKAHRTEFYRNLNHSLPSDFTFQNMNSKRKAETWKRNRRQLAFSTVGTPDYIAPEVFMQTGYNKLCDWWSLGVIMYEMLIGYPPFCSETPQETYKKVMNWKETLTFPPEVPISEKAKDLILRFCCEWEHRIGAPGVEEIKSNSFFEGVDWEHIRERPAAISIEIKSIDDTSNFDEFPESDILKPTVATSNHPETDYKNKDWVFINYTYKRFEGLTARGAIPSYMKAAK

[18] = biological target: MAP3K7 (human) (UniProt O43318)
[19] = biological target: DAPK1 (human) (UniProt P53355)
[20] = biological target: DCLK2 (human) (UniProt Q8N568)
[21] = biological target: NUAK1 (human) (UniProt O60285)
[22] = biological target: GSK3B (human) (UniProt P49841)
[23] = test system: PIK3CA (human), P42336 [E542K]
[24] = biological target: AURKC (human) (UniProt Q9UQB9)
Sequence of AURKC (human) (Q9UQB9 whole entry, looked up): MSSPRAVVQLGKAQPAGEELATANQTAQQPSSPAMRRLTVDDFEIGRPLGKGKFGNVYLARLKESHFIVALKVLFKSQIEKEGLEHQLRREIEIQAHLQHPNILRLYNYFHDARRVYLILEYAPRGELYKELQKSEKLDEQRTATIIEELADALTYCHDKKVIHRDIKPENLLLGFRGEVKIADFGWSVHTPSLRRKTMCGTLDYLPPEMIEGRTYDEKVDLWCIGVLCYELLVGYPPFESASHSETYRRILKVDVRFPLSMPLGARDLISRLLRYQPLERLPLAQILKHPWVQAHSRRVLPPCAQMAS

[25] = biological target: BLK (human) (UniProt P51451)
Sequence of BLK (human) (P51451 whole entry, looked up): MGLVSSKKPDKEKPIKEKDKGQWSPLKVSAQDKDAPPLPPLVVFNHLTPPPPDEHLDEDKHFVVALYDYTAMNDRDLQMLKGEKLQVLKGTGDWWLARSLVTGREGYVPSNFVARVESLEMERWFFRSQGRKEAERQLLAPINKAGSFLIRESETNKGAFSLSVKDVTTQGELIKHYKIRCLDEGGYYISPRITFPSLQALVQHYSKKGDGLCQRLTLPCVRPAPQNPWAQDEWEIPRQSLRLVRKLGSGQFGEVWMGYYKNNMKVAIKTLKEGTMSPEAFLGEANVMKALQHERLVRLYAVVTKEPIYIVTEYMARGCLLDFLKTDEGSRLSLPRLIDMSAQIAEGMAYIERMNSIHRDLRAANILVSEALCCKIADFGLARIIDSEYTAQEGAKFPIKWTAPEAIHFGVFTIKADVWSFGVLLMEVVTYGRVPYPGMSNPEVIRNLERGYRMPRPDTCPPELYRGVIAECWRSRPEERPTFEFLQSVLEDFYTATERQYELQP

[26] = biological target: PRKAA2 (human) (UniProt P54646)
[27] = biological target: PKN3 (M.tuberculosis) (UniProt Q6P5Z2)
[28] = biological target: TBK1 (human) (UniProt Q9UHD2)
[29] = biological target: RIOK3 (human) (UniProt O14730)
[30] = biological target: TNK2 (human) (UniProt Q07912)
[31] = biological target: CAMK2D (human) (UniProt Q13557)
[32] = biological target: MAP2K7 (human) (UniProt O14733)
[33] = biological target: ROS1 (human) (UniProt P08922)
[34] = biological target: TAOK2 (human) (UniProt Q9UL54)
Sequence of TAOK2 (human) (Q9UL54 whole entry, looked up): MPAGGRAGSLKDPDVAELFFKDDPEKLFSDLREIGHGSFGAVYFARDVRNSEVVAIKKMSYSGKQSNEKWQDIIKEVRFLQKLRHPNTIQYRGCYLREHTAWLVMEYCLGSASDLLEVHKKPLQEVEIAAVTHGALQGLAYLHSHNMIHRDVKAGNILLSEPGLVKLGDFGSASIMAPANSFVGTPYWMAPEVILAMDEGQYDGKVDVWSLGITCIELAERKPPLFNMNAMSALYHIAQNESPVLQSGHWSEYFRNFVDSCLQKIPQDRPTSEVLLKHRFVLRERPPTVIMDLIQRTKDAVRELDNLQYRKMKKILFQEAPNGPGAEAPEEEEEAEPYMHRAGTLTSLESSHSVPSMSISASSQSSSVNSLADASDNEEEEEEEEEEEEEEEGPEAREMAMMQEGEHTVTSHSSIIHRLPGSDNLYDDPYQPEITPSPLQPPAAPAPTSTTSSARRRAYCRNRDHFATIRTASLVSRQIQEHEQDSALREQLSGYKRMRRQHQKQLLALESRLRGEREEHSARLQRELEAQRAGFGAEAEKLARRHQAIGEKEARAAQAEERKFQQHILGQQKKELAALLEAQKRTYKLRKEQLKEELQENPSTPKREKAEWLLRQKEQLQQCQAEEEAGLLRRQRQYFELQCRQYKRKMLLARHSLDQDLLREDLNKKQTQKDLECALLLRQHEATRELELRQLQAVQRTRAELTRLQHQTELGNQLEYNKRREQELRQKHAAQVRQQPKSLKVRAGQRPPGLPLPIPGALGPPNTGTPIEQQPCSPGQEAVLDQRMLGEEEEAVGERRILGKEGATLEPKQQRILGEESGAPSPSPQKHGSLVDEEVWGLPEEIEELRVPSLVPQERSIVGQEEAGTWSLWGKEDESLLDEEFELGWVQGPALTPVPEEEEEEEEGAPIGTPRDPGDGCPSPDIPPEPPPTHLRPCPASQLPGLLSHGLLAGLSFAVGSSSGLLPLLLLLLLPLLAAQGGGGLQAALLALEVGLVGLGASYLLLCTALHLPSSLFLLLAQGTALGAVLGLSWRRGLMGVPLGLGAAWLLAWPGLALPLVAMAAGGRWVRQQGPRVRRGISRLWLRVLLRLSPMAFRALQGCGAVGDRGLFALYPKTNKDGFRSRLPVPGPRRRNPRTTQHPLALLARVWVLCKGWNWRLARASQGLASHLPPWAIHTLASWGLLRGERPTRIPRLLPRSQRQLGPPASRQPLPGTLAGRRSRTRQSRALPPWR

[35] = biological target: MAP3K12 (human) (UniProt Q12852)
[36] = biological target: CDK7 (human) (UniProt P50613)
[37] = biological target: CSNK1G1 (human) (UniProt Q9HCP0)
[38] = biological target: INSR (human) (UniProt P06213)
Sequence of INSR (human) (P06213 whole entry, looked up): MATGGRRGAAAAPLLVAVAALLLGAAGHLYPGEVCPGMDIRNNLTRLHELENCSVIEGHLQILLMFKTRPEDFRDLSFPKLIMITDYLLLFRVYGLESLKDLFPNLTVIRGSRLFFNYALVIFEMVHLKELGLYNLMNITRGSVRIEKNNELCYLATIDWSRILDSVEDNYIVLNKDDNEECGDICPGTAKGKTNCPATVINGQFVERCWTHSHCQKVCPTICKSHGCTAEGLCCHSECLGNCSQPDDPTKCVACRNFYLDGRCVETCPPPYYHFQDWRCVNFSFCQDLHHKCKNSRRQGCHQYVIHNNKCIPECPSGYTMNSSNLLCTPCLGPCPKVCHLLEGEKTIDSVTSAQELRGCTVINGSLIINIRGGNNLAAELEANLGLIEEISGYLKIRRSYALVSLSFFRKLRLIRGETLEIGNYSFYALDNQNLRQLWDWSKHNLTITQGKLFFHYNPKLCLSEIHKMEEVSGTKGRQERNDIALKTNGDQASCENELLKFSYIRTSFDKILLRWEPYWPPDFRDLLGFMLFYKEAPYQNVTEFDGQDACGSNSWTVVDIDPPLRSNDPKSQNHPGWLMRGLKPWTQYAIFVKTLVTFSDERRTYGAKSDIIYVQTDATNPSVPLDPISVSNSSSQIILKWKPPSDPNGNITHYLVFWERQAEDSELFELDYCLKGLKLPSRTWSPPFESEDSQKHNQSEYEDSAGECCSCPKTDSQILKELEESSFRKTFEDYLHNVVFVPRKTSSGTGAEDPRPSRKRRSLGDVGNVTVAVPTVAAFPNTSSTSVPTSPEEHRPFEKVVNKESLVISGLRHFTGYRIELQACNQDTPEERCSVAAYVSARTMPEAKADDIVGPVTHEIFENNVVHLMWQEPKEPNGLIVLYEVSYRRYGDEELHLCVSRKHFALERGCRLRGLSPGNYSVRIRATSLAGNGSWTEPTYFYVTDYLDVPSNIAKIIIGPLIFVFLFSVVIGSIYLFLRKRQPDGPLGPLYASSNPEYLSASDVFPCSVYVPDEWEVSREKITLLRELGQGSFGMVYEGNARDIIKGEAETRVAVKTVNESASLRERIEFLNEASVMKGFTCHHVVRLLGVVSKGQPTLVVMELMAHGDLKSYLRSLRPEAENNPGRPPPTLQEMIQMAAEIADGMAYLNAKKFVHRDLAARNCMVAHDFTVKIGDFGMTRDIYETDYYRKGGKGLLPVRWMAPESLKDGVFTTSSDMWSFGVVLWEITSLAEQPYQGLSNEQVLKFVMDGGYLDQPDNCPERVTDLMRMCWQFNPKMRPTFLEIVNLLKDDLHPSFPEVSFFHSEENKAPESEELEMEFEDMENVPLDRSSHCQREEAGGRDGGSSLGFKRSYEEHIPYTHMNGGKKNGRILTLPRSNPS

[39] = biological target: CDK15 (human) (UniProt Q96Q40)
[40] = biological target: MAP2K5 (human) (UniProt Q13163)
Sequence of MAP2K5 (human) (Q13163 whole entry, looked up): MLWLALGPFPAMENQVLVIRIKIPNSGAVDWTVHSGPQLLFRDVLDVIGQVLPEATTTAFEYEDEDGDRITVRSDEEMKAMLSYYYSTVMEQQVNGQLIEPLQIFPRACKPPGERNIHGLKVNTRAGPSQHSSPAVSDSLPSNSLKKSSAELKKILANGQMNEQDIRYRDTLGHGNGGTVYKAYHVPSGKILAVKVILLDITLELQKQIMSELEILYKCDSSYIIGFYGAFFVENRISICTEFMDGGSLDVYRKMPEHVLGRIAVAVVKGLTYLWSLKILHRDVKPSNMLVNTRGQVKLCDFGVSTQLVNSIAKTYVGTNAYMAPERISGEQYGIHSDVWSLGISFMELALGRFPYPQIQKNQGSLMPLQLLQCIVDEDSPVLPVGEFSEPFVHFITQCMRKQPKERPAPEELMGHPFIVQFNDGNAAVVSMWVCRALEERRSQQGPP

Sequence of LIMK2 (human) (P53671 whole entry, looked up): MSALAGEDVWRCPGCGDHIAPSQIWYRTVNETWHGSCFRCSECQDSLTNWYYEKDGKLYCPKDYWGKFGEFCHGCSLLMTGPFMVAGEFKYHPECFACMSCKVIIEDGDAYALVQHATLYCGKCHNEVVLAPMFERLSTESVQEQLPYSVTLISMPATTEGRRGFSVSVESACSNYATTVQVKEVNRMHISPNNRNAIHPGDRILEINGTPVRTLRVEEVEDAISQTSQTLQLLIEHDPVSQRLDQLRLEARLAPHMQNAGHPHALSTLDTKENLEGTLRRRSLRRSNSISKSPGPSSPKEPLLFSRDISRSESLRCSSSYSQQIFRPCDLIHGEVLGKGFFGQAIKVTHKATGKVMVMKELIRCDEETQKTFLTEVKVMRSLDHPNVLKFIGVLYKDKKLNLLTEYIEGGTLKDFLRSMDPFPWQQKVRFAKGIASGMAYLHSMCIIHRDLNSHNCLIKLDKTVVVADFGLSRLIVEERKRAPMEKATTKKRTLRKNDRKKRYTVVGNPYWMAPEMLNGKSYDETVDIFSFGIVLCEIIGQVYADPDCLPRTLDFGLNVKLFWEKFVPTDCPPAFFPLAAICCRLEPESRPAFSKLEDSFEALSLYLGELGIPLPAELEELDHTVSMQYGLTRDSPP

CCN1CCN(Cc2ccc(NC(=O)c3ccc(C)c(/C=C/c4cnc5[nH]ccc5c4OC)c3)cc2C(F)(F)F)CC1
kinase still bound, per cent of control [1]: 76%
kinase still bound, per cent of control [2]: 2.9%
kinase still bound, per cent of control [3]: 0%
kinase still bound, per cent of control [4]: 26%
kinase still bound, per cent of control [5]: 23%
kinase still bound, per cent of control [6]: 100%
kinase still bound, per cent of control [7]: 0.65%
kinase still bound, per cent of control [8]: 100%
kinase still bound, per cent of control [9]: 100%
kinase still bound, per cent of control [10]: 63%
kinase still bound, per cent of control [11]: 100%
kinase still bound, per cent of control [12]: 100%
kinase still bound, per cent of control [13]: 100%
kinase still bound, per cent of control [14]: 1.5%
kinase still bound, per cent of control [15]: 32%
kinase still bound, per cent of control [16]: 71%
kinase still bound, per cent of control [17]: 72%
kinase still bound, per cent of control [18]: 4.8%
kinase still bound, per cent of control [19]: 100%
kinase still bound, per cent of control [20]: 100%
kinase still bound, per cent of control [21]: 100%
kinase still bound, per cent of control [22]: 99%
kinase still bound, per cent of control [23]: 100%
kinase still bound, per cent of control [24]: 1.5%
kinase still bound, per cent of control [25]: 0.15%
kinase still bound, per cent of control [26]: 39%
kinase still bound, per cent of control [27]: 89%
kinase still bound, per cent of control [28]: 55%
kinase still bound, per cent of control [29]: 0.35%
kinase still bound, per cent of control [30]: 0.8%
kinase still bound, per cent of control [31]: 100%
kinase still bound, per cent of control [32]: 1.4%
kinase still bound, per cent of control [33]: 100%
kinase still bound, per cent of control [34]: 0.5%
kinase still bound, per cent of control [35]: 22%
kinase still bound, per cent of control [36]: 41%
kinase still bound, per cent of control [37]: 98%
kinase still bound, per cent of control [38]: 79%
kinase still bound, per cent of control [39]: 36%
kinase still bound, per cent of control [40]: 0.2%

COc1cc2c(Nc3ccc(NC(=O)c4ccccc4)cc3)ncnc2cc1OCCCN1CCOCC1
kinase still bound, per cent of control [1]: 37%
kinase still bound, per cent of control [2]: 78%
kinase still bound, per cent of control [3]: 39%
kinase still bound, per cent of control [4]: 66%
kinase still bound, per cent of control [5]: 64%
kinase still bound, per cent of control [6]: 100%
kinase still bound, per cent of control [7]: 28%
kinase still bound, per cent of control [8]: 76%
kinase still bound, per cent of control [9]: 100%
kinase still bound, per cent of control [10]: 58%
kinase still bound, per cent of control [11]: 100%
kinase still bound, per cent of control [12]: 100%
kinase still bound, per cent of control [13]: 100%
kinase still bound, per cent of control [14]: 7.3%
kinase still bound, per cent of control [15]: 100%
kinase still bound, per cent of control [16]: 92%
kinase still bound, per cent of control [17]: 92%
kinase still bound, per cent of control [18]: 49%
kinase still bound, per cent of control [19]: 84%
kinase still bound, per cent of control [20]: 100%
kinase still bound, per cent of control [21]: 92%
kinase still bound, per cent of control [22]: 70%
kinase still bound, per cent of control [23]: 100%
kinase still bound, per cent of control [24]: 23%
kinase still bound, per cent of control [25]: 0.5%
kinase still bound, per cent of control [26]: 72%
kinase still bound, per cent of control [27]: 37%
kinase still bound, per cent of control [28]: 66%
kinase still bound, per cent of control [29]: 100%
kinase still bound, per cent of control [30]: 5.9%
kinase still bound, per cent of control [31]: 100%
kinase still bound, per cent of control [32]: 100%
kinase still bound, per cent of control [33]: 41%
kinase still bound, per cent of control [34]: 94%
kinase still bound, per cent of control [35]: 35%
kinase still bound, per cent of control [36]: 6.5%
kinase still bound, per cent of control [37]: 97%
kinase still bound, per cent of control [38]: 77%
kinase still bound, per cent of control [39]: 68%
kinase still bound, per cent of control [40]: 0.3%
